Laboratory results from US4977189A, “Substituted guanidinedicarbonyl derivatives” (American Cyanamid Company, priority 1988, dated 1990).
Several values for one entry are separate records, joined by “and”; a condition that tells them apart may be missing. Equal entries are not always repeated.

Key:
[1] = system: Brain-Specific Receptors (3H-benzodiazepine binding); assay: Inhibition of the Binding of 3H-Benzodiazepine to Brain-Specific Receptors of Rats; design: species or system rat (male albino, Wistar strain; whole cortex); settings: 3H-diazepam (1.5 nM) or 3H-flunitrazepam (1.0 nM); rat cortex P2-fraction; 30 minutes in ice; test concentration not given
Source text: A test utilized for the determination of anxiolytic activity is the measurement of the ability of test compounds to inhibit the binding of tritiated benzodiazepines to brain-specific recptors of warm-blooded animals. A modification of the method described by R. F. Squires, et al., Nature, 266, No. 21, pg 732 (April, 1977) and H. Mohler, et al., Science, 198, pg 849 (1977) was employed.
Male albino rats (Wistar strain, weighing 150-200 g each) were used. The test compounds were solubilized in either dimethylformamide, acetic acid, ethanol or hydrochloric acid.
Whole cortex of rats was homogenized gently in 20 volumes of ice-cold 0.32M sucrose, centrifuged twice at 1000 g for 10 minutes and then recentrifuged at 30,000 g for 20 minutes to produce a crude P2 -synaptosomal fraction. The P2 -fraction was either: (1) resuspended in twice the original volume in hypotonic 50 mM Tris.HCl (pH 7.4), or (2) resuspended in one-half the original volume in hypotonic 10 mM Tris.HCl (pH 7.4) and frozen (-20° C.) until time of use. Frozen P2 preparations were thawed and resuspended in four times the original homogenizing volume at time of assay.
The binding assay consisted of 300 μl of the P2 -fraction suspension (0.2-0.4 mg protein), 100 μl of test drug and 100 μl of ^3 H-diazepam (1.5 nM, final concentration) or ^3 H-flunitrazepam (1.0 nM, final concentration) which was added to 1.5 ml of 50 mM Tris.HCl (pH 7.4). Non-specific binding controls and total binding controls d 100 μl of diazepam (3 μM final concentration) and 100 μl of deionized water, respectively, in place of the test compound. Incubation for 30 minutes proceeded in ice and was terminated by filtration, under vacuum, through glass fiber filters. The filters were washed twice with 5 ml of ice-cold 50 mM Tris.HCl (pH 7.4) and placed in scintillation vials. After drying at 50°-60° C. for 30 minutes, 10 ml of diluent was added and the radioactivity determined in a scintillation counter.
Inhibition of binding was calculated by the difference between total binding and binding in the presence of test compound, divided by the total binding, X 100.

Royal Hart mice = assay: Hypoxic Survival Test; type: in vivo, mouse (Royal Hart); settings: Mus musculus, ip, 5 min, 30 minutes prior, 10% oxygen, survival after 5 minutes, read-out: % Survivors; for responders at 50 mg/kg: 50 mg/kg intraperitoneally; for responders at 100 mg/kg: 100 mg/kg intraperitoneally
Description: A useful in vivo test that measures how effectively central nervous system-acting drugs enhance survival in a hypoxic environment, presumably by improving the ratio of energy supply to demand is known as the Hypoxic Survival Test. […] Drugs are tested by intraperitoneally injecting groups of mice 30 minutes prior to placing them in a hypoxic mixture and measuring survival. The rationale of this test is that drugs which enhance survival under hypoxic conditions without concomitant, depression or sedative side effects, may do so by enhancing energy metabolism, or by preserving normal brain function under conditions of reduced energy metabolism. Given the dependence of the brain on a constant supply of energy, drugs which have this property may have many far-reaching therapeutic indications, including recovery from stroke and closed head injury, as well as reducing the deleterious effects of the aging central nervous system.
Groups of 20 Royal Hart mice (6 weeks of age) are injected intraperitoneally with test compound (1-200 mg/kg) 30 minutes prior to placing them in a hypoxic mixture (10% oxygen in 90% […]) and measuring survival after 5 minutes.
A separate group of 20 mice is injected intraperitoneally with saline solution (0.01 cc/g of body weight) and processed as described above.
Still another group of 20 mice is injected intraperitoneally with 0.125 mg/kg of physostigmine and processed as described above.

Swiss-Webster mice = assay: Passive Avoidance Anoxic Induced Amnesia Test; type: in vivo, mouse (Swiss-Webster, middle-aged); settings: 50 mg/kg intraperitoneally, 30 minutes prior to training and testing; latency vs saline control; 30% considered active
Source text: Another in vivo test associated with decreased neural function in mammals is the Passive-Avoidance Anoxic-Induced-Amnesia Test. This test is used to determine the attenuation of anoxic induced amnesia in mice treated with drug, as compared to saline treated control animals with no drug.
A shock-motivated, single trial, step-through passive avoidance procedure is used. Groups of 25 Swiss-Webster, middle-aged mice (9 months of age) are placed singly in the front chamber of a 2-chamber box and are allowed to voluntarily cross into the rear chamber. As soon as the mouse enters the rear chamber, a door automatically traps the animal and a mild electric shock (0.4 mA for 4 seconds) is delivered to its feet. Following the foot shock, the mice are initially placed in an anoxic environment (0% oxygen) for 12 seconds, which quickly induces unconsciousness. They are then placed in a hypoxic environment (15% oxygen) for four minutes which prolongs the oxygen deprived state, maintaining unconsciousness. All testing is performed 24 hours later, and in all cases the mice appear fully recovered from the previous anoxic/hypoxic treatment. All test compounds are administered intraperitoneally at a dose of 10-200 mg/kg, 30 minutes prior to training and testing. […]
The latency to enter the rear chamber is recorded for both training and testing. […]

| Structure (SMILES) | % Inhibition [1] | responders at 50 mg/kg (Royal Hart mice) | responders at 100 mg/kg (Royal Hart mice) | responders at 200 mg/kg (Royal Hart mice; 200 mg/kg intraperitoneally) | % Improvement (Swiss-Webster mice) |
| --- | --- | --- | --- | --- | --- |
| Cc1cccc(C(=O)N=C(NC(=O)c2cccc(C)c2)Nc2ccc(C(N)=O)cc2)c1 [N,N'-[[4-(Aminocarbonyl)phenyl]carbonimidoyl]bis[3-methylbenzamide]] | 25% | 40% | 43% | – | – |
| NC(=O)c1ccc(N=C(NC(=O)c2ccccc2)NC(=O)c2ccccc2)cc1 [N,N'-[[[4-(Aminocarbonyl)phenyl]imino]methylene]bis[benzamide]] | – | 40% | 62% | 47% | 50% and 54% |
| COc1ccc(C(=O)NC(=NC(=O)c2cccs2)Nc2cccc(C(N)=O)c2)cc1 [N-[[[3-(Aminocarbonyl)phenyl]amino][(4-methoxybenzoyl)amino]methylene]-2-thiophenecarboxamide] | 19% | 45% | 45% | – | – |
| Cc1ccc(C(=O)NC(=NC(=O)c2cccc(C)c2)Nc2ccc(C(N)=O)cc2)cc1 [N-[[[4-(Aminocarbonyl)phenyl]amino][(4-methylbenzoyl)amino]methylene]-3-methylbenzamide] | 85% | – | – | – | – |
| COc1ccc(C(=O)NC(=NC(=O)c2ccsc2)Nc2ccc(C(N)=O)cc2)cc1 [N-[[[4-(Aminocarbonyl)phenyl]amino][(4-methoxybenzoyl)amino]methylene]-3-thiophenecarboxamide] | 14% | – | – | – | – |
